According to patent US10172907B2, “Compositions comprising β-arrestin 1 and methods of use thereof for therapeutic modulation of aldosterone levels in heart disease” (NOVA SOUTHEASTERN UNIVERSITY, priority 2010, dated 2019):
“Also recorded” adds a separate entry of the source. Each block holds one compound with its values, some of them ahead of it. Non-standard residues stand in square brackets, D forms with d. Residues, ends and D or L forms follow the SMILES beside them. Sar = CNCC(=O)O

What was measured:
[1] = test system: adrenal βarr1-overexpressing post-MI rats; assay: Echocardiography (ejection fraction) of adrenal βarr1-overexpressing post-MI rats treated with sartans and CORET; type: in vivo, rat; details: for cardiac ejection fraction (EF): adrenal βarr1-overexpressing post-MI rats, 7-day treatment, saline-treated 35±0.3%; for ejection fraction (EF %) vs. Saline, in words: 3-week post-MI rats, 7 days post Adβarr1 gene transfer and concomitant treatment
Description: (§1) In vivo studies: For the in vivo studies, post-MI rats overexpressing Purl in their adrenals received 7-day-long treatments with the agents of interest.
(§2) Aldosterone measurements: Plasma aldosterone and in vitro aldosterone secretion in the supernatant of cultured H295R cells were determined by ELISA with the Aldosterone EIA kit from ALPCO Diagnostics, Salem, N.H. (Lymperopoulos A. et al. Proc. Natl. Acad. Sci. USA 106:5825-5830 2009). In vivo adrenal gene deliveries: Adrenal-specific in vivo gene delivery in rats was performed as previously described in Lymperopoulos A. et al. Proc. Natl. Acad. Sci. USA 106:5825-5830 2009). Echocardiographic and hemodynamic measurements: Two-dimensional guided M-mode and Doppler echocardiography and closed chest cardiac catheterization were performed as described in Lymperopoulos, A. et al. Nat. Med. 13:315-323 2007. Statistical analysis: Data are presented as mean±SEM. One- or two-way ANOVA with Bonferroni test was used for analysis of numeric parameters and differences were considered significant at p<0.05. Experimental Results
(§3) Statistical analysis: p<0.05, vs. Saline, ^, p<0.05, vs. CORET (SEQ ID NO:4) or IRB, n=6 rats/group.

[2] = molecular target: T1, AT1R (Homo sapiens, UniProt P30556); assay: Activation of βarr2 by human AT1R in vitro by AngII peptide analogs (FIGS. 1B-C); type: cell-based; details: for EC50: in vitro
T1 sequence (P30556 1-359): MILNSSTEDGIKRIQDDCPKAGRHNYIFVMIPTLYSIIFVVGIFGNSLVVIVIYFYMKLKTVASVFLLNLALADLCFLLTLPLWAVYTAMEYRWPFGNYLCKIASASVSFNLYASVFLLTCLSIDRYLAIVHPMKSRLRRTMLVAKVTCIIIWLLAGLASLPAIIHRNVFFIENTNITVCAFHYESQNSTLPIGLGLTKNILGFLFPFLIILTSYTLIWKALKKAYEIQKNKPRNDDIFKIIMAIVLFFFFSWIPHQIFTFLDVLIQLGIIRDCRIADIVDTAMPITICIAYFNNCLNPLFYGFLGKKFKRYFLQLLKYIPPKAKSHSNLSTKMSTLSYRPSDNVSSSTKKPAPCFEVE

[3] = test system: H295R cells; assay: In vitro βarr1-dependent SII-induced aldosterone secretion in H295R cells (ELISA); type: cell-based, human; details: H295R cells transfected with Adβarr1, stimulated with 1 mM SII, standard doses of agents; p<0.05 vs. SII
Description: as §2
Of note, when endogenous Purl is inhibited, no effects by drugs and peptides on SII-induced aldosterone secretion are seen (data not shown), as expected, since SII is a “biased” βarr-only agonist (Luttrell, L. M. et al. Pharmacol. Rev. 62:305-330 2010; Rajagopal, S. et al. Nat. Rev. Drug Discov. 9:373-386 2010; Kenakin, T. et al. Pharmacol. Rev. 62:265-304 2010). Statistical analysis: <0.05, vs. SII, n=3 independent experiments.

[4] = test system: adrenal βarr1-overexpressing post-MI rats; assay: Plasma aldosterone in adrenal βarr1-overexpressing post-MI rats treated with sartans and CORET; type: in vivo, rat; details: 3-week post-MI rats, 7 days post Adβarr1 adrenal gene transfer, 7-day treatment
Description: as §1, §2
Statistical analysis: p<0.05, vs. Saline, n=6 rats/group.

[5] = test system: adrenal βarr1-overexpressing post-MI rats; assay: In vivo hemodynamic analysis (cardiac contractility) of adrenal βarr1-overexpressing post-MI rats treated with sartans and CORET; set-up: species or system rat; details: vs. Saline
Description: as §1, §2, §3

[6] = molecular target: T1, AT1R; assay: Inhibition of SII-induced activation of βarr2 by human AT1R in vitro (FIG. 1A); details: % normalized signal
[7] = molecular target: T1, AT1R; assay: Biased antagonism of sartans for AT1R-stimulated βarr vs. G-protein-mediated signaling (FIG. 6); details: both IC50 in nM; <1 biased for βarr antagonism, >1 biased towards G-protein antagonism
Description: This ranking was derived from the ratios of individual IC50 for AT1R-βarr antagonism to IC50 for G-protein antagonism (both in nM) for each sartan.

[8] = test system: post-MI rats; assay: Plasma aldosterone (EIA) after adrenal gene delivery in post-MI rats; type: in vivo, rat
Description: In vivo adrenal gene delivery in post-myocardial infarction (MI) rats: All animal procedures and experiments were performed in accordance with the guidelines of the IACUC committees of Thomas Jefferson and Nova Southeastern Universities. MI was performed using a known cryo-infarct method (Lymperopoulos, A. et al. Nat. Med. 13:315-323 2007). Adrenal-specific in vivo gene delivery was done essentially as described in Lymperopoulos, A. et al. (Mol. Ther. 16:302-307 2008) via direct delivery of adenovirus in the adrenal gland. […] Construction and purification of adenovirus: Recombinant adenovirus that encode full length wild-type βarr1 (Adβarr1; SEQ ID NO:1) or a rat βarr1 C-terminal fragment (Adβarr-1ct) (SEQ ID NO:3, amino acid residues 369-418 of the C-terminal of rat βarr-1 (SEQ ID NO:2); see FIG. 7A) were constructed as described in Lymperopoulos A. et al. Proc. Nati. Acad. Sci. USA 106:5825-5830 2009 and Lymperopoulos, A. et al. Nat. Med. 13:315-323 2007. […] The black box highlights the clathrin- and AP-2 adaptin-binding domains, which are necessary for the receptor internalizing and signaling functions of βarr1 (Ferguson, S. S. Pharmacol Rev 53:1-24 2001) Transgenes were cloned into shuttle vector pAdTrack-CMV, which harbors a CMV-driven green fluorescent protein (GFP), to form the viral constructs by using standard cloning protocols. As control adenovirus, empty vector which expressed only GFP (AdGFP) was used. The resultant adenovirus were purified using two sequential rounds of CsCl density gradient ultracentrifugation as described in Lymperopoulos A. et al. Proc. Natl. Acad. Sci. USA 106:5825-5830 2009 and Lymperopoulos, A. et al. Nat. Med. 13:315-323 2007. Plasma aldosterone measurements: Rat plasma aldosterone levels were determined by EIA (Aldosterone EIA Kit, ALPCO Diagnostics, Salem, N.H., USA) as described in Lymperopoulos A. et al. Proc. Natl. Acad. Sci. USA 106:5825-5830 2009 and Mihailidou et al. Hypertension 40:124-129 2002. Echocardiographic and hemodynamic measurements: Two-dimensional guided M-mode and Doppler echocardiography using a 14-Mhz transducer (Vevo 770 Echograph, VisualSonic Inc., Toronto, Ontario, Canada) and closed chest cardiac catheterization were performed in rats as described in Lymperopoulos, A. et al. Nat. Med. 13:315-323 2007 and Rengo, G. et al. Circulation 119:89-98 2009. Three independent echocardiographic measurements were taken in both modes. […]

[9] = test system: post-MI rat hearts; assay: Masson-trichrome staining for cardiac fibrosis in post-MI rats; type: in vivo; details: 7 days concomitant drug vs. vehicle (saline)
Description: (§4) In vivo adrenal gene delivery in post-myocardial infarction (MI) rats: All animal procedures and experiments were performed in accordance with the guidelines of the IACUC committees of Thomas Jefferson and Nova Southeastern Universities. MI was performed using a known cryo-infarct method (Lymperopoulos, A. et al. Nat. Med. 13:315-323 2007). Adrenal-specific in vivo gene delivery was done essentially as described in Lymperopoulos, A. et al. (Mol. Ther. 16:302-307 2008) via direct delivery of adenovirus in the adrenal gland. […] Construction and purification of adenovirus: Recombinant adenovirus that encode full length wild-type βarr1 (Adβarr1; SEQ ID NO:1) or a rat βarr1 C-terminal fragment (Adβarr-1ct) (SEQ ID NO:3, amino acid residues 369-418 of the C-terminal of rat βarr-1 (SEQ ID NO:2); see FIG. 7A) were constructed as described in Lymperopoulos A. et al. Proc. Nati. Acad. Sci. USA 106:5825-5830 2009 and Lymperopoulos, A. et al. Nat. Med. 13:315-323 2007. […] Plasma aldosterone measurements: Rat plasma aldosterone levels were determined by EIA (Aldosterone EIA Kit, ALPCO Diagnostics, Salem, N.H., USA) as described in Lymperopoulos A. et al. Proc. Natl. Acad. Sci. USA 106:5825-5830 2009 and Mihailidou et al. Hypertension 40:124-129 2002. […]

[10] = test system: post-MI rats; assay: Echocardiographic parameters after adrenal gene delivery in post-MI rats; type: in vivo, rat; details: Adβarr1 post-MI rats
Description: as §4

SMILES: CCOc1nc2cccc(C(=O)O)c2n1Cc1ccc(-c2ccccc2-c2nnn[nH]2)cc1 [CAN, Candesartan]
cardiac ejection fraction (EF) [1]: 41.1±1%

EC50 [2]: 1 nM
times less potent than AngII for βarr activation by the AT1R ([2]; ratio of EC50s): 10 times
SMILES: CCSC[C@H](NC(=O)[C@H](Cc1ccc(O)cc1)NC(=O)[C@@H](NC(=O)[C@H](CCCNC(=N)N)NC(=O)CNC)C(C)C)C(=O)N[C@@H](Cc1c[nH]cn1)C(=O)N1CCC[C@H]1C(=O)N[C@@H](CC(C)C)C(=O)O [CORET, Sar^1,Cys(Et)^5,Leu^8-AngII] (H-[Sar]RVYC(Et)HPL-OH; N-terminus and C-terminus assumed)
SII-induced aldosterone secretion [3]: can enhance; also recorded: far greater aldosterone secretion in vitro than SII
plasma aldosterone levels vs. Saline [4]: an increase; also recorded: significantly worsens hyperaldosteronism
ejection fraction (EF %) vs. Saline, in words [1]: further worsened cardiac function
myocardial systolic function in response to maximal dose of Isoproterenol (Max. Iso) [5]: severely impaired myocardial systolic function

relative potency for inhibition of SII-induced activation of βarr2 by human AT1R [6]: the least potent βarr inhibitors
ratio of IC50 for AT1R-βarr antagonism to IC50 for G-protein antagonism [7]: 1.05
SMILES: CCCCC1=NC2(CCCC2)C(=O)N1Cc1ccc(-c2ccccc2-c2nnn[nH]2)cc1 [IRB, Irbesartan]
plasma aldosterone levels vs. Saline [4]: unable to counter the adrenal βarr1-mediated hyperaldosteronism
ejection fraction (EF %) vs. Saline, in words [1]: further worsened cardiac function
cardiac ejection fraction (EF) [1]: 32±1%
myocardial systolic function in response to maximal dose of Isoproterenol (Max. Iso) [5]: severely impaired myocardial systolic function

SMILES: CCCCc1nc(Cl)c(CO)n1Cc1ccc(-c2ccccc2-c2nn[nH]n2)cc1 [LOS, Losartan]
plasma aldosterone reduction by losartan in Adβarr1ct-treated post-MI rats ([8]; losartan 50 mg/kg/day for 7 days post-gene delivery): no significant aldosterone reduction
plasma aldosterone, losartan-treated control AdGFP post-MI rats ([8]; losartan 50 mg/kg/day for 7 days post-gene delivery, saline-treated 470±20): 402 ± 10 pg/mL
plasma aldosterone, losartan-treated Adβarr1 post-MI rats ([8]; losartan 50 mg/kg/day for 7 days post-gene delivery, saline-treated 845±150, not significant): 880 ± 88 pg/mL
cardiac fibrosis in Adβarr1-adrenal treated rat hearts under drug treatment [9]: incapable of reducing the cardiac fibrosis

EC50 [2]: 11.2 nM
SMILES: CC[C@H](C)[C@H](NC(=O)[C@@H]1CCCN1C(=O)[C@H](Cc1c[nH]cn1)NC(=O)[C@@H](NC(=O)[C@@H](NC(=O)[C@@H](NC(=O)[C@H](CCCNC(=N)N)NC(=O)CNC)C(C)C)[C@@H](C)CC)[C@@H](C)CC)C(=O)O [SII, Sar^1,Ile^4,Ile^8-AngII]

SMILES: CCCCC(=O)N(Cc1ccc(-c2ccccc2-c2nnn[nH]2)cc1)[C@H](C(=O)O)C(C)C [VAL, Valsartan]
SII-induced aldosterone secretion [3]: can inhibit
plasma aldosterone levels vs. Saline [4]: profound decreases
plasma aldosterone levels vs. Saline ([4]; listed as valsartan): significant plasma aldosterone reductions
ejection fraction (EF %) vs. Saline, in words [1]: significantly improved
cardiac ejection fraction (EF) [1]: 40±1%
myocardial systolic function in response to maximal dose of Isoproterenol (Max. Iso) [5]: significantly improves it

SMILES: COC(=O)[C@@H]1CC2=CC(=O)CC[C@]2(C)[C@@]23O[C@@H]2C[C@@]2(C)[C@@H](CC[C@@]24CCC(=O)O4)[C@H]13 [eplerenone]
effect on plasma aldosterone increase caused by Adβarr1 treatment ([8]; Adβarr1 post-MI rats, 100 mg/kg/day eplerenone for 7 days): no effect
EF reduction and LVEDD increase induced by adrenal βarr1 overexpression ([10]; eplerenone 100 mg/kg/d for 7 days): prevented
effects of adrenal βarr1 overexpression (EF, LVEDD) ([10]; eplerenone low dose 5 mg/kg/d, data not shown): prevented
cardiac fibrosis in Adβarr1-adrenal treated rat hearts under drug treatment [9]: markedly reduced fibrosis
